Data from US12433911B2, “Preparation and storage of liposomal RNA formulations suitable for therapy” (BIONTECH SE, priority 2019, dated 2025).
Like-named read-outs stand apart in the source and are kept apart here.

Legend:
[1] = DOPE and DOPE/DOTMA solubility in ethanol (HPLC); type: physicochemical; conditions: for DOPE solubility in ethanol comprising 220 mM DOTMA, mM after Filtration: DOTMA/DOPE 66:33 in ethanol abs.
Method: DOPE and DOPE/DOTMA solubility in ethanol was investigated by preparing 300 mM DOPE or 330 mM DOPE/DOTMA (66:33) solutions in ethanol. The lipids were dissolved by incubating the lipid solutions at 37° C. for 20 minutes. The DOPE solutions were centrifuged at 17000 G for 1 h and the DOPE concentration was measured in the supernatant by HPLC. The DOTMA/DOPE solutions were filtered through a 0.22 μm PES syringe filter and the lipid concentration was measured in the filtrate by HPLC.
Lipid concentration in the different liposome formulations were measured by HPLC (Agilent technologies. Santa Clara. USA) using a Sunfire C18 2.5 μm 4.6×75 mm column (Waters, Massachusetts USA) and a wave length of 205 nm. Mobile phase A was a mixture of 70% methanol/30% isopropanol/0.1% TFA, mobile phase B was a mixture of 55% methanol/15% isopropanol/30% water/0.1% TFA. Liposomes samples were or not diluted with water to 3 mM total lipid concentration.
It has been tested if DOPE-containing solutions of higher concentration can be prepared (in the supersaturated state) and used for ethanol injection for liposome manufacturing (next section).

[2] = Freezing of RNA lipoplexes with cryoprotectants and NaCl, particle size; type: physicochemical; conditions: for preservation of particle size: single freezing step, 0 to 60 mM NaCl, 20% (w/v) cryoprotectant
Excerpt: Methods: Different compounds representative for monosaccharides (glucose and sorbitol), disaccharides (sucrose and trehalose), amino acids (arginine, prolin), triols (glycerin) as well as cryoprotectant systems containing mixtures of different sugars (mannitol and sucrose) were investigated in order to identify suited cryoprotectants (FIGS. 25 and 26). Therefore RNA lipoplexes were frozen in the presence of increasing concentration of these compounds. In order to identify minimum content of cryoprotectant at a certain concentration of NaCl, RNA lipoplexes were frozen in the presence of increasing amounts of sucrose or trehalose as representative cryoprotectants (Table 7). The samples were initially frozen a single time in order to determine the concentration range of cryoprotectant to be investigated in detail. In a third experiment, the efficacy of stabilization of the particle size was challenged by freezing of the RNA lipoplexes up to 10 times in the presence of the cryoprotectant trehalose (Table 8).

[3] = Buffer, pH, NaCl and sucrose stability studies at +25° C. and −15° C. (PCS, pH, capillary electrophoresis); conditions: for stability of the RNA in RNA lipoplexes: Example 2.1, accelerated conditions (25°); for preservation of the particle size and the polydispersity: Example 2.1, frozen state (−15° C.)
Method: RNA lipoplexes are incubated under accelerated conditions (25° C.) in the presence of an exemplarily cryoprotectant. RNA integrity was analyzed by capillary electrophoresis over 60 days. Additionally, RNA lipoplexes are incubated under at the anticipated storage conditions (−15° C.) in the presence of an exemplarily cryoprotectant for up to two years. RNA integrity was analyzed by capillary electrophoresis.
The respective RNA lipoplexes were investigated under accelerated conditions (25° C.) and in the frozen state (−15° C.).
RNA lipoplexes were formed with liposomes containing 2 mM of acetic acid. The respective RNA lipoplexes were investigated under accelerated conditions (25° C.) and in the frozen state (−15° C.).
Method: All RNA lipoplexes were automatically prepared in a single batch and the different concentrations of HEPES were adjusted by the addition of a cryoprotectant solution containing different amounts of HEPES. Particle sizes and polydispersity of RNA lipolexes were analyzed by photon correlation spectroscopy (PCS) measurements. Additionally, the RNA integrity was analyzed by capillary electrophoresis and the pH was measured.
In the following study, the concentration of HEPES which is required for stabilization of the pH of the RNA lipoplexes was investigated. RNA lipoplexes were formed with liposomes containing 5 mM of acetic acid and different concentrations of HEPES were adjusted by using different cryoprotectant solutions and the respective RNA lipoplexes were investigated under accelerated conditions (25° C.). The pH range from pH 6.2 to 7.2 was tested.
Methods: As a representative cryoprotectant, sucrose was investigated at a concentration of 10% (w/v). A detailed description of the experiments is given in section 2.
In the following study, the long-term stability of RNA lipoplexes in the frozen state was investigated with the combination of the reduced concentration of NaCl and Sucrose in the presence of either HEPES or Histidine as a buffering agent at a pH of 6.5.

[4] = RNA integrity of RNA lipoplexes under stress conditions (40° C.), capillary electrophoresis; conditions: 21 days, absence of cryoprotectant, by buffering system
Method: RNA lipoplexes are initially incubated under stress conditions (40° C.) in the absence of cryoprotectant. RNA integrity was analyzed by capillary electrophoresis over 21 days. In order to investigate the optimum pH range in the presence of an exemplary cryoprotectant, RNA lipoplexes were incubated in the presence of HEPES and sucrose at 40° C. and RNA integrity was analyzed for 21 days.
RNA integrity was analyzed as a key physicochemical parameter over 21 days.

[5] = Method: The samples were frozen at −30° C. and then transferred to the respective temperature for long-term storage (either −15 or −30° C.). After defined storage time, samples were analyzed and preservation of the colloidal stability was analyzed by measuring the particle size using PCS. These experiments were performed at a total RNA concentration of 0.05 mg/mL.
Method: To investigate the minimum content of representative cryoprotectants as sucrose, trehalose, glucose and mixtures including dextran required for long-term storage at −20° C., RNA lipoplexes were frozen at a fixed cryoprotectant content in combination with varying NaCl concentrations. For monomeric or dimeric molecular cryoprotectants as glucose, sucrose, and trehalose a concentration of 22% (w/v) was adjusted. These formulations were frozen and stored at −15 to −40° C. and long-term stability was investigated by measuring the particle size using PCS after defined storage time.
The samples were frozen and stored at −20° C. After defined storage time, samples were analyzed and preservation of the colloidal stability was analyzed by measuring the particle size.

[6] = compound tested as cryoprotectant
[7] = Example 2.2, accelerated conditions (25° C.)
[8] = Example 2.2, frozen state (−15° C.)
[9] = 70 mM NaCl, up to 10 times freezing

SMILES: CCCCCCCC/C=C\CCCCCCCC(=O)OC[C@H](COP(=O)(O)OCCN)OC(=O)CCCCCCC/C=C\CCCCCCCC [DOPE, 1,2-di-(9Z-octadecenoyl)-sn-glycero-3-phosphoethanolamine]
- DOPE solubility in ethanol comprising 220 mM DOTMA, mM after Filtration ([1]; Corden Pharma, F0624): 93 mM
- DOPE solubility in ethanol comprising 220 mM DOTMA, mM after Filtration ([1]; Corden Pharma, W0650): 106 mM
- DOPE solubility in ethanol comprising 220 mM DOTMA, mM after Filtration ([1]; Merck, MK2885-C): 94 mM
- DOPE solubility in ethanol comprising 220 mM DOTMA, mM after Filtration ([1]; NOF, 14099612): 103 mM
- DOPE solubility in ethanol ([1]; Provider Corden Pharma, Charge Nr. F0624): 56 mM
- DOPE solubility in ethanol ([1]; Provider Corden Pharma, Charge Nr. W0650): 59 mM
- DOPE solubility in ethanol ([1]; Provider Merck, Charge Nr. MK2885-C): 59 mM
- DOPE solubility in ethanol ([1]; Provider NOF, Charge Nr. 14099612): 63 mM

SMILES: OCC(O)CO [Glycerin, glycerin]
- stabilization of RNA lipoplexes during freezing [2, 6]: can be used as cryoprotectants

SMILES: O=S(=O)(O)CCN1CCN(CCO)CC1 [HEPES, 2-[4-(2-hydroxyethyl)piperazin-1-yl]ethanesulfonic acid]
- HEPES concentration sufficient for stabilization of the adjusted pH ([3]; 25° C.): ≥ 2.5 mM
- stability of the RNA in RNA lipoplexes [3]: best stability
- preservation of the particle size and the polydispersity [3]: equally suited
- stabilization of the RNA integrity [3, 7]: comparable stabilization of the RNA integrity
- stabilization of the RNA integrity [3, 8]: comparable stabilization of the RNA integrity
- RNA integrity ([3]; Example 4.1, accelerated +25° C., vs current formulation 20 mM NaCl and 22% sucrose): better preserved

SMILES: N[C@@H](Cc1c[nH]cn1)C(=O)O [Histidine, histidine]
- stability of the RNA in RNA lipoplexes [3]: lower stability
- preservation of the particle size and the polydispersity [3]: equally suited
- stabilization of the RNA integrity [3, 7]: slightly reduced stability
- stabilization of the RNA integrity [3, 8]: comparable stabilization of the RNA integrity

SMILES: O=S(=O)(O)CCN1CCOCC1 [MES, 2-(N-morpholino)ethanesulfonic acid]
- stabilization of the RNA integrity [3]: comparable stabilization of the RNA integrity

SMILES: N=C(N)NCCC[C@H](N)C(=O)O [arginine]
- stabilization of RNA lipoplexes during freezing [2, 6]: clearly destabilizes the RNA lipoplexes

SMILES: O=C([O-])[O-].[Na+].[Na+] [carbonate, sodium carbonate]
- stabilization of the RNA (RNA integrity) [4]: did not result in comparable stabilization of the RNA

SMILES: O=C(O)[C@@H]1CCCN1 [proline]
- stabilization of RNA lipoplexes during freezing [2]: can be used as cryoprotectants

SMILES: O=P(O)(O)O [sodium phosphate]
- stabilization of the RNA (RNA integrity) [4]: comparable results

SMILES: OC[C@@H](O)[C@@H](O)[C@H](O)[C@@H](O)CO [sorbitol]
- stabilization of RNA lipoplexes during freezing [2, 6]: can be used as cryoprotectants
- stabilization efficacy compared with the other cryoprotectants ([2]; freezing): lower

SMILES: OC[C@H]1O[C@@](CO)(O[C@H]2O[C@H](CO)[C@@H](O)[C@H](O)[C@H]2O)[C@@H](O)[C@@H]1O [sucrose]
- stabilization efficacy between cryoprotectants [5]: No difference
- preservation of particle size [2]: acceptable preservation of particle size

SMILES: OC[C@H]1O[C@H](O[C@H]2O[C@H](CO)[C@@H](O)[C@H](O)[C@H]2O)[C@H](O)[C@@H](O)[C@@H]1O [trehalose]
- stabilization efficacy between cryoprotectants [5]: No difference
- trehalose sufficient for stabilization of particle characteristics ([2]; 50 mM NaCl, even after 10 times freezing): ≥ 12.5%
- trehalose required for exact preservation of the particle size [2, 9]: ≥ 22.5%
- trehalose required for minimum stabilization [2, 9]: ≥ 12.5%
- exact preservation of the particle size ([2]; 90 mM NaCl, highest investigated concentration 27.5%): could not be achieved
- trehalose required for minimum stabilization ([2]; 90 mM NaCl, up to 10 times freezing): ≥ 15.0%
- preservation of particle size [2]: acceptable preservation of particle size
